Values joined by “and” are separate entries in the source; they are usually repeats but may differ in a detail not shown here. Equal values may be shown once.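 Dose response: 5 concentrations. Exposure: 48 h. Format: 96-well plates. Endpoint: linear interpolation; highest concentration if not reached. GI50 = concentration required for 50% inhibition of growth. Definition used: TGI = concentration required for complete inhibition of growth.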
Columns and labels:
Assay in all cases: growth of human tumour cells (NCI), 48 h
[1] = test system: ACHN renal
[2] = test system: DLD-1 colon
[3] = test system: DMS 114 small cell lung
[4] = test system: NCI-H23 lung
[5] = test system: SF-295 CNS
[6] = test system: SK-MEL-28 melanoma
[7] = test system: SK-MEL-5 melanoma
[8] = test system: SNB-19 CNS
[9] = test system: NCI-H522 lung
[10] = test system: NCI/ADR-RES ovarian

SMILES	TGI [1]	TGI [2] [µM]	TGI [3] [µM]	TGI [4] [µM]	TGI [5] [µM]	TGI [6]	TGI [7]	TGI [8] [µM]	TGI [9]	GI50 [1]	GI50 [2] [µM]	GI50 [4]	GI50 [9]	GI50 [10] [µM]	TGI [10]	GI50 [5]	GI50 [7]	GI50 [8] [µM]	GI50 [6]
Cc1nc(C(=O)O)c2ccccc2n1	> 100 µM	> 100	> 100	> 100	> 100	> 100 µM	> 100 µM	> 100	–	–	–	–	–	–	–	–	–	–	–
N#Cc1ccc(C=NC23CC4CC(CC(C4)C2)C3)cc1	> 100 µM	–	> 100	> 100	> 100	> 100 µM	–	> 100	> 100 µM	–	–	–	–	–	–	–	–	–	–
O=S(=O)(/C=C/C(=C/c1ccccc1)S(=O)(=O)c1ccccc1)c1ccccc1	3.14 µM	–	3.32	3.56	3.05	2.8 µM	–	3.18	2.85 µM	–	–	–	–	–	–	–	–	–	–
Cc1cc(C)nc(NS(=O)(=O)c2ccc(Nc3c4ccccc4nc4c(C(=O)Nc5ccc(S(=O)(=O)N=C(N)N)cc5)cccc34)cc2)n1	> 100 µM	> 100	> 100	> 100	–	> 100 µM	> 100 µM	> 100	> 100 µM	–	–	–	–	–	–	–	–	–	–
Cc1ccc(S(=O)(=O)N/N=C(/CC(=O)c2c(C)n([O-])c3ccccc3[n+]2=O)C(=O)Nc2ccccc2C)cc1	> 100 µM	> 100	> 100	> 100	> 100	> 100 µM	–	> 100	> 100 µM	–	–	–	–	–	–	–	–	–	–
CCC1(O)C(=O)OCc2c1cc1n(c2=O)Cc2cc3c(NC(=O)CN)cccc3nc2-1 (stereo not given)	2.71 µM	> 100	–	2.58	28	> 100 µM	4.78 µM	> 100	9.9 µM	0.187 µM	11.2	0.27 µM	0.387 µM	0.296	1.51 µM	0.368 µM	0.8 µM	0.492	–
O=C(Nc1cccc(-n2cc(-c3ccncc3)c(-c3cc(O)cc(Cl)c3)n2)c1)c1cc(C(F)(F)F)cc(C(F)(F)F)c1	> 100 µM	–	–	46.5	7.15	85.3 µM	8.67 µM	> 100	8.37 µM	4.98 µM	–	4.16 µM	1.6 µM	4.55	> 100 µM	2.37 µM	2.61 µM	7.03	4.71 µM
NS(=O)(=O)c1ccc(-c2cc3ccncc3cc2OCc2ccccc2)cc1	> 25 µM	–	–	> 25	> 25	> 25 µM	> 25 µM	> 25	> 25 µM	> 19 µM	–	> 25 µM	> 17 µM	25	> 25 µM	> 18 µM	> 25 µM	> 25	20.6 µM
O=C(CC1SC(=Nc2ccccc2Cl)NC1=O)Nc1ccc(Cl)cc1Cl (stereo not given)	> 100 µM	> 100	> 100	> 100	> 100	> 100 µM	> 100 µM	> 100	–	–	–	–	–	–	–	–	–	–	–
Cc1ccc(-c2nc([P+](c3ccccc3)(c3ccccc3)c3ccccc3)c(S(=O)(=O)c3ccc(C)cc3)o2)cc1	2.78 µM	–	–	3.5	10.7	3.09 µM	3.4 µM	3.3	3.67 µM	1.46 µM	–	1.68 µM	1.6 µM	2.94	18 µM	2.91 µM	1.81 µM	1.64	1.7 µM
c1ccc2c(c1)Nc1ccncc1S2	> 100 µM	–	–	> 100	68.8	> 100 µM	> 100 µM	> 100	65.7 µM	17.9 µM	–	20.7 µM	11.8 µM	21.4	> 100 µM	14.7 µM	25.8 µM	25.7	31.5 µM
Cc1cc(N(CCCNc2ccnc3cc(Cl)ccc23)Cc2ccco2)nc(N2CCN(C)CC2)n1	6.51 µM	–	–	22.1	3.84	3.41 µM	3.17 µM	16.9	14.4 µM	2.46 µM	–	5.52 µM	3.62 µM	4.13	18.8 µM	1.87 µM	1.75 µM	5	1.74 µM
COC(=O)[C@H]1CCCN1C(=O)[C@H]1CCCN1C(=O)[C@@H](Cc1c[nH]c2ccccc12)NC(=S)Nc1cc(C(F)(F)F)cc(C(F)(F)F)c1	7.78 µM	–	–	4.68	3.17	4.17 µM	3.23 µM	5.72	3.51 µM	2.51 µM	–	2.07 µM	1.73 µM	3.45	12.5 µM	1.67 µM	1.7 µM	2.14	2.07 µM
O=C(O)CCC(=O)c1ccc2sc3ccccc3c2c1	> 100 µM	–	–	> 100	> 100	> 100 µM	> 100 µM	> 100	> 100 µM	–	–	–	–	–	> 100 µM	–	–	–	–
O=C1OC(C(O)CO)C(O)=C1O (stereo not given)	2940 µM and 3060 µM	–	–	> 10000	> 10000	6230 µM and > 10000 µM	2910 µM and > 5600 µM	> 10000	3380 µM and > 3070 µM	1540 µM and 1610 µM	–	2920 µM and > 4420 µM	1590 µM and 293 µM	2450	5930 µM and > 6010 µM	6830 µM and > 4590 µM	1560 µM and > 4190 µM	> 10000	2530 µM and > 10000 µM
Oc1cccc2ccc(N/N=C/c3cc(CN4CCOCC4)c(O)c4ncccc34)nc12	1.47 µM	–	–	1.73	5.27	6.19 µM	0.0375 µM	12.6	1.48 µM	< 0.0119 µM	–	0.0327 µM	< 0.0165 µM	0.0233	1.63 µM	0.0471 µM	0.0124 µM	0.0169	0.0634 µM
Oc1ccc(C(c2ccc(O)cc2)c2ccc(Br)cn2)cc1	14.5 µM	–	–	0.772	1.63	60 µM	24.5 µM	> 100	46.6 µM	0.45 µM	–	0.267 µM	1.43 µM	0.229	0.55 µM	0.331 µM	11.9 µM	16.1	21.3 µM

— PubChem BioAssay (NCI)
